In patent US20070213366A1, “Treatment of Synucleinopathies” (priority 2005, published 2007):
“Also recorded” adds a separate entry of the source.

Experiments:
[1] = tested on: UCH-L1; test: 2D electrophoresis and Western blot of membrane-bound and cytosolic UCH-L1 in SH-SY5Y cells; assay type: cell-based; settings: compared to DMSO
Protocol: Membrane fractionation: Cells were harvested by scraping and washed with PBS. Cell pellet was suspended in lysis buffer (50 mM Tris-HCl, 1 mM EDTA) supplemented with protease inhibitor cocktail (Sigma) and homogenized by passing through 26G needles 10 times. Suspension was clarified by spinning at 600 g for 5 minutes. Clarified suspension was ultracentrifuged at 100,000 g for 2 hours and separated into membrane and cytosol. Membrane fraction washed with washing buffer (50 mM Tris-HCl, 1 mM EDTA 1 M NaCl), and pelleted each time with bench-top centrifuge.
2D electrophoresis: For the isolation of total cellular protein, cultured SH-SY5Y cells maintained as described above were rinsed with ice-cold PBS. Cells were lysed in 1 ml dSDS buffer (50 mM Tris-HCl, pH 8.0 0.1% SDS) supplemented with protease inhibitor cocktail. Lysates were boiled for 3 min, and were treated with Dnase and Rnase as described. […]
Western Blotting: Following transfer of SDS gels onto NC membrane, all membranes were blocked with 5% non-fat milk in TBST (50 mM Tris-HCl pH7.4, 150 mM NaCl, 0.1% Tween 20), and incubated with primary antibody overnight with 1% BSA in TBST, washed three times with TBST, and incubated with horseradish peroxidase-conjugated secondary antibody for 1 hour (Promega). Bound antibodies were detected using enhanced chemiluminascence (NEM). […]

[2] = tested on: SH-SY5Y cells overexpressing α-synuclein; test: Viability (Trypan blue, MTT) of SH-SY5Y cells infected by α-synuclein-expressing adenovirus; assay type: cell-based
Protocol: Viral Infection: Viral infection and MTT assay in SH-SY5Y cells: The viruses were amplified and purified according to the published procedure. SH-SY5Y cells were grown on 100 mm petri-dishes and induced with 100 nM retinoic acid for 3-5 days before the virus infection with M.I.O at 75. Viruses were diluted with DPBS to desired M.I.O. After four hours of incubation, 10 ml growth medium was added. On the second day, cells were splitted into 96-well plates and treated with compounds for next 48 hours. The growth medium in each well was replaced with growth medium with 5 ug/ml MTT. Medium was removed after three hours incubation, and 200 ul isopropyl (0.04N HCl) was added into each well. The signal was read at 570 nm.
Viable cell counting: At stated time poins, SH-SY5Y cells were trypsinized with 100 ul trypsin-EDTA for 1 minute and neutralized with 400 ul growth medium. Cell suspension was made up by mixing 0.2 ml of cells in growth medium, 0.3 ml of HBSS and 0.5 ml of 0.4% Trypan Blue solution. Viable cell numbers were counted by standard cell counting chamber.
Since α-synuclein neurotoxicity is dose-dependent, it follows that accumulation of α-synuclein, caused by UCH-L1 farnesylation, should promote its toxicity. […] These cells express high endogenous levels of UCH-L1. […] The unit of y-axis is 10^5/ml. (F) Cell viability was assessed by the amount of metabolic activity using MTT assay. […]

[3] = tested on: UCH-L1; test: Total amount and turnover (pulse-chase) of UCH-L1 in SH-SY5Y cells; assay type: cell-based
[4] = tested on: α-synuclein; test: Western blot of α-synuclein in SH-SY5Y cells infected with α-synuclein-expressing adenovirus; assay type: cell-based; settings: normalized against actin
Protocol: Western Blotting: Following transfer of SDS gels onto NC membrane, all membranes were blocked with 5% non-fat milk in TBST (50 mM Tris-HCl pH7.4, 150 mM NaCl, 0.1% Tween 20), and incubated with primary antibody overnight with 1% BSA in TBST, washed three times with TBST, and incubated with horseradish peroxidase-conjugated secondary antibody for 1 hour (Promega). Bound antibodies were detected using enhanced chemiluminascence (NEM).
Since α-synuclein neurotoxicity is dose-dependent, it follows that accumulation of α-synuclein, caused by UCH-L1 farnesylation, should promote its toxicity. […] These cells express high endogenous levels of UCH-L1. […] The unit of y-axis is 10^5/ml. (F) Cell viability was assessed by the amount of metabolic activity using MTT assay. […] The effect of FTI-277 on the α-synuclein accumulation in the SH-SY5Y infected with α-synuclein-expressing adenovirus were analyzed by Western blotting (B) and the amount of α-synuclein (C) was quantified using NIH Image program and normalized against the amount of actin.

[5] = tested on: α-synuclein; test: α-synuclein degradation/accumulation assay in COS-7 cells; assay type: cell-based
Excerpt: Plasmids: C220S cDNA was generated by PCR site-specific mutagenesis. For the PCR, the 5′ primer is uchforw SEQ ID NO: 1 ([…]), and 3′ primer is uchc220s SEQ ID NO:2 (CTAAGA […]). Wt UCH-L1 served as the template. The PCR fragment was inserted into pcDNA vector. For S 18YC220S mutant, S18Y UCH-L1 served as the template in PCR. For the FLAG tagged UCH-L1, the 5′ primer is FLAGuchforw SEQ ID NO: 3 ([…] CGATGGAG), and the 3′ primer is uchrev SEQ ID NO: 4 ([…]). Wt UCH-L1 or C220S served as the template. PCR fragment was purified and inserted into pcDNA vector. For the FLAG tagged UCH-L3, the 5′ primer is L3HindIII SEQ ID NO: 5 (CTAAAGCTTATGGACTAC […]), the 3′primer is L3XhoISAA SEQ ID NO: 6 ([…]). For the UCH-L3 CKAA variant, the 5′ primer is L3 HindIII and the 3′ primer is L3XhoICKAA SEQ ID NO: 7 ([…]). α-synuclein degradation assay: Lipofectamine 2000 was used to transfect COS-7 cells according to the Invitrogen protocol. Transfected cells were cultured at 37° C. for 48 hours before being treated with 35 μM lactacystin or DMSO. After 24 hours of incubation, the cells were lysed with Tris buffer (50 mM Tris, 2% SDS, 0.1% NP-40), and subjected to SDS-PAGE, followed by quantitative Western blotting.
In order to isolate the latter possibility, a mutant form of UCH-L3 was constructed in which the UCH-L1 farnesylation sequence was added to the UCH-L3 C-terminus. […]

[6] = tested on: primary dopaminergic cultures; test: α-synuclein toxicity in primary dopaminergic cultures; assay type: cell-based
[7] = tested on: human α-synuclein; test: Immunostaining of α-synuclein inclusions in cortex and hippocampus of α-synuclein transgenic mice; assay type: in vivo
Protocol: Farnesyl transferase inhibitors Zarnestra and OSI-754 were administered to mice of the α-synuclein transgenic line described in Masliah et al. (Masliah et al. “Dopaminergic loss and inclusion body formation in alphα-synuclein mice: implications for neurodegenerative disorders” Science 287(5456): 1265-69, 2000; incorporated herein by reference). Animals from this line have α-synuclein neuronal inclusions in the cortex, hippocampus, and the olfactory bulb (Masliah et al. “Dopaminergic loss and inclusion body formation in alphα-synuclein mice: implications for neurodegenerative disorders” Science 287(5456): 1265-69, 2000; incorporated herein by reference). Transgenic mice were orally administered either FTI in 20% cyclodextrin solution or the same volume of vehicle alone twice a day for 30 or 90 days. In some cases, non-transgenic mice also received vehicle twice a day for 30 to 90 days. At the end of treatment, mice were sacrificed, and the brains removed and hemisected. One hemisphere of each was fixed in 4% paraformaldehyde/PBS (pH 7.4), cryoperserved, then sectioned for histology. The other hemisphere was subdivided into four brain regions, including the cortex and hippocampus, that were homogenized and processed into cytoplasmic and membrane fractions.
Formation of α-synuclein inclusions in the cortex and hippocampus was probed by immunostaining with an antibody for full-length human α-synuclein. Cells positive for human α-synuclein were quantified. […] These regions were also analyzed for ubiquitin-immunoreactive inclusions and by the Campbell Switzer method of silver staining. Ubiquitin is known to be a constituent of Lewy Bodies and in the α-synculein inclusions found in the transgenic mouse line used in the study (Masliah et al. “Dopaminergic loss and inclusion body formation in alphα-synuclein mice: implications for neurodegenerative disorders” Science 287(5456): 1265-69, 2000; incorporated herein by reference). […] Campbell-Switzer staining is a general marker of Lewy Body type inclusions (Uchihara et al. “Silver stainings distinguish Lewy bodies and glial cytoplasmic inclusions: comparison between Gallyas-Braak and Campbell-Switzer methods” Acta Neuropathol. (Berl) 110(3):255-60, 2005; incorporated herein by reference).
(§1) Formation of α-synuclein inclusions in the cortex and hippocampus was probed by immunostaining with an antibody for full-length human α-synuclein. Cells positive for human α-synuclein were quantified.

[8] = tested on: α-synuclein; test: Sandwich ELISA of total α-synuclein in cortex fractions of α-synuclein transgenic mice; assay type: in vivo; settings: 45 mg/kg twice a day for 30 days, vs vehicle-treated transgenic mice
Protocol: (§2) Farnesyl transferase inhibitors Zarnestra and OSI-754 were administered to mice of the α-synuclein transgenic line described in Masliah et al. (Masliah et al. “Dopaminergic loss and inclusion body formation in alphα-synuclein mice: implications for neurodegenerative disorders” Science 287(5456): 1265-69, 2000; incorporated herein by reference). Animals from this line have α-synuclein neuronal inclusions in the cortex, hippocampus, and the olfactory bulb (Masliah et al. “Dopaminergic loss and inclusion body formation in alphα-synuclein mice: implications for neurodegenerative disorders” Science 287(5456): 1265-69, 2000; incorporated herein by reference). Transgenic mice were orally administered either FTI in 20% cyclodextrin solution or the same volume of vehicle alone twice a day for 30 or 90 days. […]
(§3) Treatment with 35 mg/kg Zarnestra twice a day for 30 days decreased levels of α-synuclein protein in the cortex and the amount of farnesylated UCH-L1 in the cortex of transgenic mice. Total α-synuclein levels were analyzed by a sandwich ELISA assay similar to one previously described (El-Agnaf et al. “Detection of oligomeric forms of alphα-synuclein protein in human plasma as a potential biomarker for Parkinson's disease” FASEB J. 20(3):419-25, 2006; incorporated herein by reference). […] The amount of UCH-L1 was determined by quantitative Western Blot. […]

[9] = tested on: farnesylated UCH-L1; test: Quantitative Western blot of farnesylated UCH-L1 in cortex membrane fraction of α-synuclein transgenic mice; assay type: in vivo
Protocol: as §2, §3

[10] = tested on: ubiquitin-immunoreactive inclusions; test: Ubiquitin immunohistochemistry in α-synuclein transgenic mice; assay type: in vivo; settings: 35 mg/kg twice a day for 30 days, vs vehicle
Protocol: (§4) Farnesyl transferase inhibitors Zarnestra and OSI-754 were administered to mice of the α-synuclein transgenic line described in Masliah et al. (Masliah et al. “Dopaminergic loss and inclusion body formation in alphα-synuclein mice: implications for neurodegenerative disorders” Science 287(5456): 1265-69, 2000; incorporated herein by reference). Animals from this line have α-synuclein neuronal inclusions in the cortex, hippocampus, and the olfactory bulb (Masliah et al. “Dopaminergic loss and inclusion body formation in alphα-synuclein mice: implications for neurodegenerative disorders” Science 287(5456): 1265-69, 2000; incorporated herein by reference). Transgenic mice were orally administered either FTI in 20% cyclodextrin solution or the same volume of vehicle alone twice a day for 30 or 90 days. In some cases, non-transgenic mice also received vehicle twice a day for 30 to 90 days. At the end of treatment, mice were sacrificed, and the brains removed and hemisected. […]
as §1, with “quantified. […] These regions were also analyzed for ubiquitin-immunoreactive inclusions and by the Campbell Switzer method of silver staining. […]” for “quantified.”

[11] = tested on: Lewy body-like inclusions; test: Campbell Switzer silver staining of Lewy body-like inclusions in α-synuclein transgenic mice; assay type: in vivo; settings: 35 mg/kg twice a day for 30 days, vs vehicle
Protocol: as §4
as §1, with “quantified. […] These regions were also analyzed for ubiquitin-immunoreactive inclusions and by the Campbell Switzer method of silver staining. […]” for “quantified.”

[12] = 9 mg/kg twice a day for 90 days, vs vehicle
[13] = 45 mg/kg twice a day for 90 days, vs vehicle
[14] = 35 mg/kg twice a day for 30 days, vs vehicle

COC(=O)[C@H](CCSC)NC(=O)c1ccc(NC[C@@H](N)CS)cc1-c1ccccc1 [FTI-277]
amount of cytosolic UCH-L1 [1]: without affecting | amount of membrane bound UCH-L1 [1]: significant decrease; also recorded: decreased the amount of the membrane-associated species; also recorded: reducing the amount of membrane-associated protein | α-synuclein toxicity / loss of cells ([2]; SH-SY5Y cells overexpressing α-synuclein via adenovirus, compared to DMSO): inhibits synuclein toxicity; also recorded: rescued α-synuclein toxicity; also recorded: significantly decreased loss of cells | neuroprotective effect of FTI-277 on co-administration of the small-molecule UCH-L1 inhibitor ([2]; SH-SY5Y cells overexpressing α-synuclein, not shown): eliminated | total amount of UCH-L1 [3]: reduced the total amount of UCH-L1 | rate of turnover of UCH-L1 ([3]; pulse-chase experiment not shown): increased its rate of turnover | amount of α-synuclein [4]: reducing the amount of α-synuclein accumulation; also recorded: reduced the amount of α-synuclein | synuclein level ([5]; COS-7 cells): lowers synuclein level | α-synuclein toxicity [6]: inhibit α-synuclein toxicity

C#Cc1cccc(-c2cc(=O)n(C)c3ccc(C(O)(c4ccc(Cl)cc4)c4cncn4C)cc23)c1 (stereo not shown) [OSI-754]
inclusions vs vehicle ([7]; 9 mg/kg twice a day for 90 days): fewer inclusions | α-synuclein-positive cells per mm^2, cortex [7, 12]: fewer α-synuclein-positive cells | α-synuclein-positive cells per mm^2, hippocampus [7, 12]: fewer α-synuclein-positive cells | inclusions vs vehicle ([7]; 45 mg/kg twice a day for 90 days): fewer inclusions | α-synuclein-positive cells per mm^2, cortex [7, 13]: fewer α-synuclein-positive cells | α-synuclein-positive cells per mm^2, hippocampus [7, 13]: fewer α-synuclein-positive cells | α-synuclein protein levels, cortex cytoplasmic fraction [8]: lower α-synuclein protein levels | α-synuclein protein levels, cortex membrane fraction [8]: lower α-synuclein protein levels | amount of farnesylated UCH-L1 in the cortex ([9]; 45 mg/kg twice a day for 30 days, normalized to actin): decreased the amount of farnesylated UCH-L1

Cn1cncc1[C@@](N)(c1ccc(Cl)cc1)c1ccc2c(c1)c(-c1cccc(Cl)c1)cc(=O)n2C [Zarnestra]
α-synuclein-positive cells per mm, cortex [7, 14]: significantly fewer | α-synuclein-positive cells per mm, hippocampus [7, 14]: significantly fewer | inclusions vs vehicle ([7]; transgenic mice, 35 mg/kg orally twice a day for 30 days): fewer inclusions | ubiquitin-immunoreactive inclusions [10]: fewer ubiquitin-immuoreactive inclusions | Campbell-Switzer stained inclusions [11]: fewer inclusions | amount of farnesylated UCH-L1 in the cortex ([9]; 35 mg/kg twice a day for 30 days, membrane fraction): decreased the amount of farnesylated UCH-L1 in transgenic mice to levels similar to non-transgenic mice

CC(=O)N[C@@H](CSC(=O)[C@]1([C@@H](O)C(C)C)NC(=O)[C@H](C)[C@@H]1O)C(=O)O [lactacystin]
accumulation of α-synuclein ([5]; transfected COS-7 cells, 16 kDa α-synuclein normalized against actin, sets the scale): 100%
